Patent US7939097B2, “Intraocular lens containing releasable medication” (Carl Zeiss Meditec SAS, priority 1996, dated 2011)
“And” between values parts separate entries of the source, which are not always exact repeats. Equal values may be shown once. Blank lines part the entries; values can stand above or below the compound they belong to.

How the values were obtained:
[1] = In vitro release of diclofenac from polyHEMA soft IOLs, impregnated for 7 days (Example 8); type: physicochemical; conditions: for Released quantities: polyHEMA IOL impregnated 7 days in saturated diclofenac; for Cumulative or total released quantities: polyHEMA IOL impregnated 7 days
Method: (§1) Initially, polyHEMA soft IOLs were impregnated by immersing them in a solution saturated with diclofenac (1.8 mg/ml, prepared by dissolving sodium diclofenac in a 0.9% solution of NaCl), at room temperature for 72 hours, carefully rinsed and then released into 1 ml of a 0.9% NaCl solution. After 6 hours, 24 hours and 96 hours, the diclofenac was measured in the release solution by HPLC, after which the IOL was rinsed and, for the intermediate durations, left to release in a new solution. It is understood that the released quantities correspond to the quantities previously absorbed and fixed in the IOLs The experiment of Example 7 was repeated leaving the IOLs in the saturated solution for 7 days instead of 3. The quantities released were checked after 6 hours and 24 hours.

[2] = Forced release of diclofenac after autoclaving and 10 days in the impregnation solution (Example 10); type: physicochemical
Method: Each of three hydrophilic acrylic implants of the type used in Example 9 was first introduced into the container with a 0.9% NaCl solution containing 1.5 mg/ml diclofenac solution. The container was then autoclaved at 122° C. for 30 minutes. After autoclaving, the IOLs were left in their impregnation solution for 10 days at ambient temperature. The procedure described in Example 9 was used to release the absorbed quantities of the diclofenac from the IOLs. The amounts released were respectively 83.57 μg, 101.66 μg, 84.16 μg or an average of 89.79 μg per implant.

[3] = Diclofenac fixed from lower-concentration solutions after prior sterilization (Example 13); type: physicochemical; conditions: pre-sterilized hydrophilic acrylic IOL; for quantity of diclofenac fixed per IOL: 4 days of immersion
Method: In these tests, the hydrophilic acrylic IOLs were first sterilized in their sealed containers in a 0.9% NaCl solution, in accordance with the standard sterilization procedure used for conventional IOLs. The solution contained no active ingredient of any kind. After sterilization at 121° C. for 30 minutes the containers were opened and the IOLs transferred to other containers which had previously been filled with a 0.9% NaCl solution including respectively 0.9 mg/ml, 0.45 mg/ml and 0.225 mg/ml of diclofenac. The IOLs remained immersed in the impregnation solution for 4 days in each case. Thereafter the absorbed quantities of diclofenac were driven out of the IOLs in double boilers at 97° C. as described above. […] In a second series of tests conducted with an impregnation solution of 0.9% NaCl with 0.9 mg/ml under the same conditions as in the first series, except that the residence in the impregnation solution was 49 days. The resulting average quantity of diclofenac fixed by the IOLs was 502 μg per implant.

[4] = Saturated diclofenac solution in 0.9% NaCl; type: physicochemical; conditions: sodium diclofenac dissolved in 0.9% NaCl solution
Method: as §1, with “In all the preceding examples the diclofenac was used at concentrations” for “The experiment”, “1.8 mg/ml or 1.5 mg/ml that is at or only slightly below” for “Example 7 was repeated leaving”, “saturation level.” for “IOLs in the saturated solution for 7 days instead of 3. The quantities released were checked after 6 hours and 24 hours.”

[5] = In vitro release of diclofenac from polyHEMA soft IOLs, impregnated for 72 hours (Example 7); type: physicochemical
Method: as §1, with “IOLs” for “IOLs The experiment of Example 7 was repeated leaving the IOLs in the saturated solution for 7 days instead of 3. The quantities released were checked after 6 hours and 24 hours.”

[6] = In vitro kinetics of release of diclofenac at 35° C. over 14 days; type: physicochemical; conditions: release in 0.9% NaCl at 35° C.
Method: The following experiments were intended to determine more precisely the kinetics of release of diclofenac (in vitro experiments). As previously, the quantities released were measured by sampling the release medium (0.9% neutral NaCl solution) at intervals for measurement and renewing it for a new interval. The samples were taken after 6 hours and 24 hours and then every 24 hours for 14 days in total. To approximate the actual (i.e. in vivo) conditions of use more closely, release was effected at 35° C. The IOLs were impregnated by two different methods. […] A second experiment was carried out without sterilization, the IOLs remaining in the diclofenac solution for 24 hours. The quantities released were substantially the same, to within ±10%, and are set out in the table below in hours (H), days (D) and μg/ml.

[7] = Diclofenac absorbed versus time in the impregnation solution after sterilization (Example 12); type: physicochemical; conditions: for Average amount of diclofenac released (absorbed) per IOL: average of three IOLs; for amount of diclofenac released (absorbed) per IOL: individual tests
Method: This example included tests on 21 IOLs to ascertain the time it takes for the amount of diclofenac absorbed by the IOL to reach its equilibrium. Each IOL was immersed in 5 ml of 1.5 mg/ml diclofenac solution in deionized water and then sterilized as is conventional, namely at 120° C. for a period of 30 minutes. The sterilized IOLs were then allowed to cool and left in the impregnation solution at room temperature for respective periods of 10 days, 20 days, 35 days, 41 days, 50 days and 65 days. At the end of each of these periods, three IOLs were removed and the quantity of diclofenac was then measured by forced release comprising cycles in a double boiler at 97° C. followed by rest periods until the diclofenac was entirely released from the IOLs.
The amounts of diclofenac released and corresponding to the amounts absorbed for the respective periods are expressed in μg.

[8] = tested on: postoperative inflammation of the eye; assay: Anti-inflammatory effect of diclofenac-impregnated IOL after cataract operation in rabbits (Example 14); type: in vivo, rabbit; conditions: diclofenac-impregnated IOL versus same IOL without medicated product in opposite eye, three rabbits
Method: A test was carried out on three rabbits which were implanted with hydrophilic acrylic IOLs impregnated by autoclaving in a 1.5 mg/ml diclofenac solution at 120° C. for 30 minutes as described in Example 9 above. The object of this test was to determine the anti-inflammatory effect of diclofenac after a cataract operation. After extraction, the crystalline lens in each eye, the left eye was fitted with an impregnated IOL according to the invention and the right eye with the same kind of IOL with no medicated product therein. The eyes of the rabbit were examined by an operator on day one and microscopically by an ophtalmologist on day 7 and day 14 after the operation. The observations are set out in the following table.

[9] = tested on: inflammatory reactions of the eye; assay: Clinical examination of rabbit eyes implanted with indomethacin PMMA lenses (Example 3); type: in vivo; conditions: PMMA IOL impregnated with indomethacin implanted in rabbit eye, opposite eye as control
[10] = tested on: inflammatory reactions of the eye; type: in vivo
Method: (§2) Samples of aqueous humor (approximately 150 μl) and plasma (approximately 2 ml) were taken at random intervals.

[11] = in vivo; conditions: rabbit
Method: as §2

Released quantities ([1]; 6 hours): 122 µg/mL
Released quantities ([1]; 24 hours): 109 µg/mL
Cumulative or total released quantities ([1]; 6 hours): 122 µg/mL
Cumulative or total released quantities ([1]; 24 hours): 231 µg/mL
average amount of diclofenac released per implant ([2]; as Example 10, average of three implants): 89.79 µg
amounts of diclofenac released per implant ([2]; hydrophilic acrylic IOL autoclaved at 122° C. for 30 minutes in 1.5 mg/ml diclofenac in 0.9% NaCl, then 10 days in the solution at ambient temperature, individual implants): 83.57 µg and 101.66 µg and 84.16 µg
quantity of diclofenac fixed per IOL ([3]; 0.225 mg/ml diclofenac in 0.9% NaCl): 70 µg
quantity of diclofenac fixed per IOL ([3]; 0.45 mg/ml diclofenac in 0.9% NaCl): 148 µg
quantity of diclofenac fixed per IOL ([3]; 0.90 mg/ml diclofenac in 0.9% NaCl): 276 µg
average quantity of diclofenac fixed per implant ([3]; 0.9 mg/ml diclofenac in 0.9% NaCl, 49 days in the impregnation solution): 502 µg
concentration of solution saturated with diclofenac [4]: 1.8 mg/mL
Released quantities ([5]; polyHEMA IOL impregnated 72 hours at room temperature in saturated diclofenac, release into 1 ml 0.9% NaCl, 6 hours): 127 µg/mL
Cumulative or total released quantities ([5]; polyHEMA IOL impregnated 72 hours, 6 hours): 127 µg/mL
Cumulative or total released quantities ([5]; polyHEMA IOL impregnated 72 hours, 24 hours): 222 µg/mL
Cumulative or total released quantities ([5]; polyHEMA IOL impregnated 72 hours, 96 hours): 333 µg/mL
Released quantities ([5]; polyHEMA IOL impregnated 72 hours, release into new 1 ml 0.9% NaCl, 24 hours): 95 µg/mL
Released quantities ([5]; polyHEMA IOL impregnated 72 hours, release into new 1 ml 0.9% NaCl, 96 hours): 111 µg/mL
quantities released (Q) ([6]; IOL saturated with diclofenac, medium renewed each interval, 6 H): 95 µg/mL
quantities released (Q) ([6]; medium renewed, 2 D): 40 µg/mL
quantities released (Q) ([6]; medium renewed, 3 D): 30 µg/mL
quantities released (Q) ([6]; medium renewed, 4 D): 20 µg/mL
quantities released (Q) ([6]; medium renewed, 5 D): 18 µg/mL
quantities released (Q) ([6]; medium renewed, 6 D): 12 µg/mL
quantities released (Q) ([6]; medium renewed, 7 D): 10 µg/mL
quantities released (Q) ([6]; medium renewed, 8 D): 10 µg/mL
quantities released (Q) ([6]; medium renewed, 9 D): 11 µg/mL
quantities released (Q) ([6]; medium renewed, 10 D): 12 µg/mL
quantities released (Q) ([6]; medium renewed, 11 D): 14 µg/mL
quantities released (Q) ([6]; medium renewed, 12 D): 16 µg/mL
quantities released (Q) ([6]; medium renewed, 13 D): 18 µg/mL
quantities released (Q) ([6]; medium renewed, 14 D): 20 µg/mL
quantities released (Q) ([6]; medium renewed, 24 H): 80 µg/mL
Average amount of diclofenac released (absorbed) per IOL ([7]; Day 0): 33.58 µg
Average amount of diclofenac released (absorbed) per IOL ([7]; Day 35): 92.96 µg
Average amount of diclofenac released (absorbed) per IOL ([7]; Day 41): 102.39 µg
Average amount of diclofenac released (absorbed) per IOL ([7]; Day 50): 104.33 µg
Average amount of diclofenac released (absorbed) per IOL ([7]; Day 65): 102.37 µg
amount of diclofenac released (absorbed) per IOL ([7]; sterilized at 120° C. for 30 minutes in 1.5 mg/ml diclofenac in deionized water, Day 0): 36.01 µg and 31.13 µg and 33.59 µg
amount of diclofenac released (absorbed) per IOL ([7]; sterilized, then left in impregnation solution at room temperature, Day 10): 83.57 µg and 101.66 µg and 84.16 µg
amount of diclofenac released (absorbed) per IOL ([7]; sterilized, then left in impregnation solution, Day 20): 92.68 µg and 95.60 µg and 109.99 µg
amount of diclofenac released (absorbed) per IOL ([7]; sterilized, then left in impregnation solution, Day 35): 86.65 µg and 100.06 µg and 92.18 µg
amount of diclofenac released (absorbed) per IOL ([7]; sterilized, then left in impregnation solution, Day 41): 106.94 µg and 108.33 µg and 91.90 µg
amount of diclofenac released (absorbed) per IOL ([7]; sterilized, then left in impregnation solution, Day 50): 85.29 µg and 114.80 µg and 112.90 µg
amount of diclofenac released (absorbed) per IOL ([7]; sterilized, then left in impregnation solution, Day 65): 107.06 µg and 98.64 µg and 101.41 µg
SMILES: O=C(O)Cc1ccccc1Nc1c(Cl)cccc1Cl [diclofenac]
anti-inflammatory effect, summary [8]: real anti-inflammatory effect

SMILES: COc1ccc2c(c1)c(CC(=O)O)c(C)n2C(=O)c1ccc(Cl)cc1 [indomethacin]
clinical examination: inflammatory reactions [9]: inflammatory reactions had disappeared by the tenth day from implantation
clinical observations: inflammatory reactions ([10]; polyHEMA lens impregnated with indomethacin, rabbit eye): inflammatory reactions disappeared at least as quickly as in Example 3
clinical observations: tolerance of the lenses ([10]; rabbit, in vivo): well tolerated
concentration at 7 day [11]: ~110 ng/mL
